These are literature values, as cited in patent US10960082B2, “Tridentate connexon and use thereof” (NEWBIO THERAPEUTICS, INC., priority 2013, dated 2021).

For the series, the system named is human carcinoma lines.

As usually defined, the IC50 is the concentration that inhibits the measured activity by half. With `COc1cccc2c1C(=O)c1c(O)c3c(c(O)c1C2=O)C[C@@](O)(C(=O)CO)C[C@@H]3O[C@H]1C[C@H](N)[C@H](O)[C@H](C)O1` [doxorubicin], the IC50 is 100 to 200 nM.
